From patent US20230321104A1, “USE OF PYRIDO[1,2-A]PYRIMIDINONE COMPOUND IN TREATING PERIPHERAL T CELL LYMPHOMA” (CHIA TAI TIANQING PHARMACEUTICAL GROUP CO., LTD., priority 2020, published 2023)

Tested on: relapsed/refractory peripheral T-cell lymphoma (PTCL)
Assay: Clinical trials on peripheral T-cell lymphoma
Type: in vivo, human
Details: for SPD (sum of products of maximum vertical diameters of multiple lesions): baseline 717 mm
Method: 2.1 Administration Regimen • Method of administration: orally administered once daily, 15 mg or 20 mg each time, with 21 consecutive days of administration as one cycle. • Drug: tablet of the compound of formula I, 5 mg or 20 mg.
2.2 Enrollment Criteria • 1) Histopathologically confirmed relapsed/refractory peripheral T-cell lymphoma (PTCL), including four subtypes: peripheral T-cell lymphoma, not otherwise specified (PTCL-NOS); angioimmunoblastic T-cell lymphoma (AITL); anaplastic large cell lymphoma (ALCL); and extranodal NK/T cell lymphoma (NKTCL), nasal type; • 2) Has previously received at least first-line systemic treatment regimen, had disease progression during or after the most recent treatment, or had no objective response after adequate treatment; • 3) At least one measurable target lesion present (evaluated according to the Lugano evaluation criteria, 2014 edition); • 4) Age ≥18 years; ECOG (PS) score: 0-2; expected survival time ≥3 months; • 5) Main organ functions in the screening phase meet the following criteria:
Criteria for Blood Routine Examination (No Growth Factor Used or No Blood Transfusion Conducted within 14 Days): • Absolute neutrophil count (ANC)≥1.0×10^9/L; • Lymphocyte count (LYM)≥0.5×10^9/L; • CD4+ T lymphocyte count≥0.2×10^9/L; • Platelet (PLT)≥75×10^9/L (for patients with lymphoma bone marrow infiltration, ≥50×10^9/L acceptable); • Hemoglobin (Hb)≥80 g/L;

[1] = patients with peripheral T-cell lymphoma, oral once daily 15 mg or 20 mg

## COc1ncc(-c2ccc3ncc(OCCN(C)C)c(=O)n3c2)cc1NS(=O)(=O)c1ccc(F)cc1Cl [compound of formula I]
6 enrolled patients with peripheral T-cell lymphoma (3/6), oral once daily 15 mg or 20 mg, 21-day cycle, Lugano 2014 criteria
  objective response rate (ORR): 50%
Case 1, ALK negative anaplastic large cell lymphoma, 15 mg each day, after 2 cycles of medication
  SPD (sum of products of maximum vertical diameters of multiple lesions): 495 mm
Case 1, ALK negative anaplastic large cell lymphoma, 15 mg each day, after 4 cycles
  overall therapeutic effect: complete response (CR)
Case 1, 15 mg each day, after 4 cycles
  new lesion: no new lesion was found
Case 1, 15 mg each day, after 4 cycles of medication, baseline 7.0
  SUVmax of the highest uptake lesion, the left parotid gland area (PET-CT): 1.5
Case 1, 15 mg each day, after 4 cycles of medication
  SPD (sum of products of maximum vertical diameters of multiple lesions): 409 mm
Case 2, extranodal NK/T cell lymphoma, nasal type, 15 mg each day, after 2 cycles of treatment
  therapeutic effect: partial response (PR)
Case 2, extranodal NK/T cell lymphoma, nasal type, 15 mg each day, after 2 cycles of treatment, before treatment 280 mm
  SPD of measurable target lesions (enhanced MRI): 117 mm
Case 2, 15 mg each day, after 2 cycles of treatment
  new lesion: no new lesion was found
Case 2, 15 mg each day, after 2 cycles of treatment, versus 280 mm before treatment
  decrease of SPD: 58.2%
[1]
  safety in treatment: good safety
  therapeutic effect on peripheral T-cell lymphoma: good therapeutic effect
